From publication PMC2792609, “Effect of methomyl on hepatic mixed function oxidases in rats” (Indian Journal of Pharmacology, 2008)

Test system: cytochrome P450
Experiment: Hepatic microsomal cytochrome P450 level
Type: in vivo, rat
Settings: for decrease in cytochrome P450 content: 3 days
Experimental: Adult male rats (weighing 200-230 g) were divided into four groups of six animals each. Group 1 received an equivalent amount of saline and served as control. Animals from group 2, 3, and 4 were given methomyl 1, 2, and 4 mg/kg body weight i.p. respectively, between 8: 00 a.m. and 9:00 a.m., for three consecutive days. In the second set of experiments, adult male rats were divided into four groups. Animals from group 2, 3, and 4 were injected with 4 mg/kg body weight methomyl for one, three, and five successive days. The volume injected into the rats of body weight 200 g was 1 ml. In another experiment, adult female rats and old male rats (weighing 350-450 g, 8 months old) were divided into two groups of six animals each. Group 2 of each category received methomyl (4 mg/kg body weight, i.p., for three successive days), and group 1 of each category received an equivalent amount of saline and served as the control group.
The rats were sacrificed by cervical dislocation, 24 hours after the last dose. Their livers were perfused in situ with ice cold 1.15% KCl containing 0.05 mM EDTA, rapidly excised, blotted dry, weighed, minced and homogenized with two volumes of ice cold 0.25 M sucrose solution, in a Potter-Elvehjem type homogenizer. The homogenate was centrifuged at 10,000 × g for 10 min, in a refrigerated centrifuge (REMI C-24). The microsomes were isolated by the procedure described by of Cinti et al.[4] The microsomal pellet was suspended in phosphate buffer (0.1 M, pH 7.4) and the suspension was used for the microsomal enzyme assays. Microsomal protein content was measured by the Biuret method, using bovine serum albumin as the standard.[5]
The microsomal electron transport components (cytochrome P450 and cytochrome b5) were determined using Hitachi UV-Visible double beam recording spectrophotometer, by the procedure of Omura and Sato.[67] Cytochrome c reductase activity was determined using the method recommended by Masters et al.[8] Aminopyrine N-demethylase activity was assayed according to the procedure described by Schenkman et al.[9] Formaldehyde liberated during N-demethylation was estimated by the procedure described by Nash.[10] Aniline hydroxylase assay was performed using the procedure reported by Govindwar and Dalvi.[11]

For `CNC(=O)ON=C(C)SC` [methomyl, S-methyl-N-(methyl carbomyl)-thioacetimidate], the “Cytochrome P450” value (adult female rats, 4 mg/kg body weight, i.p., three days) was 0.21 nmole/mg protein, the “decrease in cytochrome P450 content” value (adult male rats, 1 mg/kg i.p., vs control) was 34% and the “Cytochrome P450” value (adult male rats, 1 mg/kg i.p., for 3 days) was 0.27 nmole/mg protein. For the same molecule, the “decrease in cytochrome P450 content” value (adult male rats, 2 mg/kg i.p., vs control) was 34%, the “Cytochrome P450” value (adult male rats, 2 mg/kg i.p., for 3 days) was 0.27 nmole/mg protein and the “decrease in cytochrome P450 content” value (adult male rats, 4 mg/kg i.p., vs control) was 19%. For the same molecule, the “decrease in the level of cytochrome P450” value (adult male rats, 4 mg/kg i.p., five days, vs control) was 37%, the “Cytochrome P450” value (adult male rats, 4 mg/kg i.p., for 3 days) was 0.33 nmole/mg protein and the “decrease in the level of cytochrome P450” value (adult male rats, 4 mg/kg i.p., one day, vs control) was 37%. The “decrease in the level of cytochrome P450” value (adult male rats, 4 mg/kg i.p., three days, vs control) was 42%, the “Cytochrome P450” value (adult rats, 4 mg/kg i.p., 1 day of treatment) was 0.30 nmole/mg protein and the “Cytochrome P450” value (adult rats, 4 mg/kg i.p., 3 days of treatment) was 0.28 nmole/mg protein. For the same molecule, the “Cytochrome P450” value (adult rats, 4 mg/kg i.p., 5 days of treatment) was 0.30 nmole/mg protein, the “decrease in cytochrome P450” value (old male rat, 4 mg/kg i.p., three days, vs control) was 43% and the “Cytochrome P450” value (old male rats, 4 mg/kg body weight, i.p., three days) was 0.20 nmole/mg protein.
